Results: PMC6081437, “The potency of the broad spectrum bacteriocin, bactofencin A, against staphylococci is highly dependent on primary structure, N-terminal charge and disulphide formation” (Scientific Reports, 2018)
Where two headings read alike, the source gives them in different places. Bridge positions count the residues as written; N and C are the ends. Square brackets hold non-standard residues; d marks the D form. Ends that are not written are not given here. Peptide text beside a SMILES is read from it.

Assays:
S. aureus DPC5246 = type: cell-based, Staphylococcus aureus
How it was run: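 Agar well diffusion assay: peptides in 50 mM sodium phosphate pH 6.8, 1-in-4 dilutions from 1000 µM stock (250 to 0.24 µM) applied to S. aureus DPC5246 indicator plates at 37 °C. MIC is the lowest concentration giving an inhibition zone, in triplicate; concentrations rounded to whole numbers.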

Listeria innocua DPC3572 = type: cell-based; details: L. innocua DPC3572, agar well diffusion
Experimental: (§1) Peptides were resuspended at 1000 µM in 50 mM sodium phosphate buffer pH 6.8 and checked for purity by MALDI-TOF-MS. Peptides were serially diluted 1 in 4 to give a dilution series of 250, 62.50, 15.63, 3.91, 0.98 and 0.24 µM and assayed by the agar well diffusion assay described by Ryan et al.[19]. Briefly, 50 µl aliquots of each peptide concentration were plated on a S. aureus DPC5246 indicator plate and the plate incubated at 37 °C. Peptide activity (Minimum Inhibitory Concentration (MIC)) was taken as the lowest concentration of peptide to give a zone of inhibition. All assays were performed in triplicate. The dilution series values were rounded to the nearest whole number to give 1000, 250, 63, 16, 4, 1 and 0.25 µM and data is colour coded for ease of interpretation.
(§2) Bactofencin R8Q and bactofencin R8K were synthesised as described above and their activity compared to bactofencin A against S. aureus DPC5246, Listeria innocua DPC3572 and L. monocytogenes ATCC 23074.

[1] = system: L. monocytogenes ATCC 23074; type: cell-based, Listeria monocytogenes; details: L. monocytogenes ATCC 23074, agar well diffusion
Experimental: as §1, §2

Molecule | Activity (Minimum Inhibitory Concentration, MIC) (S. aureus DPC5246; DPC5246, pH 6.8) | other results
CSCC[C@@H]1NC(=O)CNC(=O)[C@H]([C@@H](C)O)NC(=O)[C@@H]2CCCN2C(=O)[C@H](CCSC)NC(=O)CNC(=O)[C@H](CC(N)=O)NC(=O)[C@H](CC(N)=O)NC(=O)[C@H](Cc2ccc(O)cc2)NC(=O)[C@H](C(C)C)NC(=O)[C@H](CCC(N)=O)NC(=O)[C@@H](NC(=O)[C@H](CCCNC(=N)N)NC(=O)[C@H](Cc2c[nH]cn2)NC(=O)[C@H](CCCCN)NC(=O)[C@H](CCCCN)NC(=O)[C@H](CCCNC(=N)N)NC(=O)[C@@H](N)CCCCN)CSSC[C@@H](C(=O)O)NC(=O)[C@H](Cc2c[nH]c3ccccc23)NC(=O)[C@H](CCCNC(=N)N)NC(=O)[C@H](Cc2ccc(O)cc2)NC1=O [bactofencin R8Q] (H-KRKKHRCQVYNNGMPTGMYRWC-OH; disulfide 7-22; N-terminus assumed) |  | Activity (Minimum Inhibitory Concentration, MIC) (S. aureus DPC5246; agar well diffusion, 50 µl aliquots of 1 in 4 serial dilutions from 1000 µM in 50 mM sodium phosphate buffer pH 6.8, 37 °C, lowest concentration giving a zone of inhibition, triplicate, values rounded to whole numbers): 1 µM; Activity (MIC) (Listeria innocua DPC3572): 250 µM; Activity (MIC) [1]: 250 µM
CSCC[C@@H]1NC(=O)CNC(=O)[C@H]([C@@H](C)O)NC(=O)[C@@H]2CCCN2C(=O)[C@H](CCSC)NC(=O)CNC(=O)[C@H](CC(N)=O)NC(=O)[C@H](CC(N)=O)NC(=O)[C@H](Cc2ccc(O)cc2)NC(=O)[C@H](C(C)C)NC(=O)[C@H](CCCNC(=N)N)NC(=O)[C@@H](NC(=O)[C@H](CCCNC(=N)N)NC(=O)[C@H](Cc2c[nH]cn2)NC(=O)[C@H](CCCCN)NC(=O)[C@H](C)NC(=O)[C@H](CCCNC(=N)N)NC(=O)[C@@H](N)CCCCN)CSSC[C@@H](C(=O)O)NC(=O)[C@H](Cc2c[nH]c3ccccc23)NC(=O)[C@H](CCCNC(=N)N)NC(=O)[C@H](Cc2ccc(O)cc2)NC1=O [K3A] (H-KRAKHRCRVYNNGMPTGMYRWC-OH; disulfide 7-22) | 1 µM | 
CSCC[C@@H]1NC(=O)CNC(=O)[C@H](C)NC(=O)[C@@H]2CCCN2C(=O)[C@H](CCSC)NC(=O)CNC(=O)[C@H](CC(N)=O)NC(=O)[C@H](CC(N)=O)NC(=O)[C@H](Cc2ccc(O)cc2)NC(=O)[C@H](C(C)C)NC(=O)[C@H](CCCNC(=N)N)NC(=O)[C@@H](NC(=O)[C@H](CCCNC(=N)N)NC(=O)[C@H](Cc2c[nH]cn2)NC(=O)[C@H](CCCCN)NC(=O)[C@H](CCCCN)NC(=O)[C@H](CCCNC(=N)N)NC(=O)[C@@H](N)CCCCN)CSSC[C@@H](C(=O)O)NC(=O)[C@H](Cc2c[nH]c3ccccc23)NC(=O)[C@H](CCCNC(=N)N)NC(=O)[C@H](Cc2ccc(O)cc2)NC1=O [T16A] (H-KRKKHRCRVYNNGMPAGMYRWC-OH; disulfide 7-22) | 16 µM | 
CSCC[C@@H]1NC(=O)CNC(=O)[C@H]([C@@H](C)O)NC(=O)[C@@H]2CCCN2C(=O)[C@H](CCSC)NC(=O)CNC(=O)[C@H](CC(N)=O)NC(=O)[C@H](CC(N)=O)NC(=O)[C@H](C)NC(=O)[C@H](C(C)C)NC(=O)[C@H](CCCNC(=N)N)NC(=O)[C@@H](NC(=O)[C@H](CCCNC(=N)N)NC(=O)[C@H](Cc2c[nH]cn2)NC(=O)[C@H](CCCCN)NC(=O)[C@H](CCCCN)NC(=O)[C@H](CCCNC(=N)N)NC(=O)[C@@H](N)CCCCN)CSSC[C@@H](C(=O)O)NC(=O)[C@H](Cc2c[nH]c3ccccc23)NC(=O)[C@H](CCCNC(=N)N)NC(=O)[C@H](Cc2ccc(O)cc2)NC1=O [Y10A] (H-KRKKHRCRVANNGMPTGMYRWC-OH; disulfide 7-22) | 4 µM | 
CSCC[C@@H]1NC(=O)CNC(=O)[C@H](CC(N)=O)NC(=O)[C@H](CC(N)=O)NC(=O)[C@H](Cc2ccc(O)cc2)NC(=O)[C@H](C(C)C)NC(=O)[C@H](CCCNC(=N)N)NC(=O)[C@@H](NC(=O)[C@H](CCCNC(=N)N)NC(=O)[C@H](Cc2c[nH]cn2)NC(=O)[C@H](CCCCN)NC(=O)[C@H](CCCCN)NC(=O)[C@H](CCCNC(=N)N)NC(=O)[C@@H](N)CCCCN)CSSC[C@@H](C(=O)O)NC(=O)[C@H](Cc2c[nH]c3ccccc23)NC(=O)[C@H](CCCNC(=N)N)NC(=O)[C@H](Cc2ccc(O)cc2)NC(=O)[C@H](C)NC(=O)CNC(=O)[C@H]([C@@H](C)O)NC(=O)[C@@H]2CCCN2C1=O [M18A] (H-KRKKHRCRVYNNGMPTGAYRWC-OH; disulfide 7-22) | 1 µM | 
CSCC[C@@H]1NC(=O)CNC(=O)[C@H]([C@@H](C)O)NC(=O)[C@@H]2CCCN2C(=O)[C@H](CCSC)NC(=O)CNC(=O)[C@H](CC(N)=O)NC(=O)[C@H](CC(N)=O)NC(=O)[C@H](Cc2ccc(O)cc2)NC(=O)[C@H](C(C)C)NC(=O)[C@H](CCCNC(=N)N)NC(=O)[C@@H](NC(=O)[C@H](CCCNC(=N)N)NC(=O)[C@H](Cc2c[nH]cn2)NC(=O)[C@H](C)NC(=O)[C@H](CCCCN)NC(=O)[C@H](CCCNC(=N)N)NC(=O)[C@@H](N)CCCCN)CSSC[C@@H](C(=O)O)NC(=O)[C@H](Cc2c[nH]c3ccccc23)NC(=O)[C@H](CCCNC(=N)N)NC(=O)[C@H](Cc2ccc(O)cc2)NC1=O [K4A] (H-KRKAHRCRVYNNGMPTGMYRWC-OH; disulfide 7-22) | 1 µM | 
CSCC[C@@H]1NC(=O)CNC(=O)[C@H]([C@@H](C)O)NC(=O)[C@@H]2CCCN2C(=O)[C@H](CCSC)NC(=O)CNC(=O)[C@H](CC(N)=O)NC(=O)[C@H](CC(N)=O)NC(=O)[C@H](Cc2ccc(O)cc2)NC(=O)[C@H](C(C)C)NC(=O)[C@H](CCCNC(=N)N)NC(=O)[C@@H](NC(=O)[C@H](CCCNC(=N)N)NC(=O)[C@H](C)NC(=O)[C@H](CCCCN)NC(=O)[C@H](CCCCN)NC(=O)[C@H](CCCNC(=N)N)NC(=O)[C@@H](N)CCCCN)CSSC[C@@H](C(=O)O)NC(=O)[C@H](Cc2c[nH]c3ccccc23)NC(=O)[C@H](CCCNC(=N)N)NC(=O)[C@H](Cc2ccc(O)cc2)NC1=O [H5A] (H-KRKKARCRVYNNGMPTGMYRWC-OH; disulfide 7-22) | 1 µM | 
CSCC[C@@H]1NC(=O)CNC(=O)[C@H]([C@@H](C)O)NC(=O)[C@@H]2CCCN2C(=O)[C@H](CCSC)NC(=O)CNC(=O)[C@H](CC(N)=O)NC(=O)[C@H](CC(N)=O)NC(=O)[C@H](Cc2ccc(O)cc2)NC(=O)[C@H](C(C)C)NC(=O)[C@H](C)NC(=O)[C@@H](NC(=O)[C@H](CCCNC(=N)N)NC(=O)[C@H](Cc2c[nH]cn2)NC(=O)[C@H](CCCCN)NC(=O)[C@H](CCCCN)NC(=O)[C@H](CCCNC(=N)N)NC(=O)[C@@H](N)CCCCN)CSSC[C@@H](C(=O)O)NC(=O)[C@H](Cc2c[nH]c3ccccc23)NC(=O)[C@H](CCCNC(=N)N)NC(=O)[C@H](Cc2ccc(O)cc2)NC1=O [R8A] (H-KRKKHRCAVYNNGMPTGMYRWC-OH; disulfide 7-22) | 1 µM | 
CSCC[C@@H]1NC(=O)CNC(=O)[C@H]([C@@H](C)O)NC(=O)[C@H]2CCCN2C(=O)[C@H](CCSC)NC(=O)CNC(=O)[C@H](CC(N)=O)NC(=O)[C@H](CC(N)=O)NC(=O)[C@H](Cc2ccc(O)cc2)NC(=O)[C@H](C(C)C)NC(=O)[C@H](CCCNC(=N)N)NC(=O)[C@@H](NC(=O)[C@H](CCCNC(=N)N)NC(=O)[C@H](Cc2c[nH]cn2)NC(=O)[C@H](CCCCN)NC(=O)[C@H](CCCCN)NC(=O)[C@H](CCCNC(=N)N)NC(=O)[C@@H](N)CCCCN)CSSC[C@@H](C(=O)O)NC(=O)[C@H](Cc2c[nH]c3ccccc23)NC(=O)[C@H](CCCNC(=N)N)NC(=O)[C@H](Cc2ccc(O)cc2)NC1=O [P15Pd] (H-KRKKHRCRVYNNGM[dP]TGMYRWC-OH; disulfide 7-22; N-terminus assumed) | > 1000 µM | 
CSCC[C@@H]1NC(=O)CNC(=O)[C@H]([C@@H](C)O)NC(=O)[C@@H]2CCCN2C(=O)[C@H](CCSC)NC(=O)CNC(=O)[C@@H](CC(N)=O)NC(=O)[C@H](CC(N)=O)NC(=O)[C@H](Cc2ccc(O)cc2)NC(=O)[C@H](C(C)C)NC(=O)[C@H](CCCNC(=N)N)NC(=O)[C@@H](NC(=O)[C@H](CCCNC(=N)N)NC(=O)[C@H](Cc2c[nH]cn2)NC(=O)[C@H](CCCCN)NC(=O)[C@H](CCCCN)NC(=O)[C@H](CCCNC(=N)N)NC(=O)[C@@H](N)CCCCN)CSSC[C@@H](C(=O)O)NC(=O)[C@H](Cc2c[nH]c3ccccc23)NC(=O)[C@H](CCCNC(=N)N)NC(=O)[C@H](Cc2ccc(O)cc2)NC1=O [N12Nd] (H-KRKKHRCRVYN[dN]GMPTGMYRWC-OH; disulfide 7-22; N-terminus assumed) | 4 µM | 
CSCC[C@@H]1NC(=O)CNC(=O)[C@H]([C@@H](C)O)NC(=O)[C@@H]2CCCN2C(=O)[C@H](C)NC(=O)CNC(=O)[C@H](CC(N)=O)NC(=O)[C@H](CC(N)=O)NC(=O)[C@H](Cc2ccc(O)cc2)NC(=O)[C@H](C(C)C)NC(=O)[C@H](CCCNC(=N)N)NC(=O)[C@@H](NC(=O)[C@H](CCCNC(=N)N)NC(=O)[C@H](Cc2c[nH]cn2)NC(=O)[C@H](CCCCN)NC(=O)[C@H](CCCCN)NC(=O)[C@H](CCCNC(=N)N)NC(=O)[C@@H](N)CCCCN)CSSC[C@@H](C(=O)O)NC(=O)[C@H](Cc2c[nH]c3ccccc23)NC(=O)[C@H](CCCNC(=N)N)NC(=O)[C@H](Cc2ccc(O)cc2)NC1=O [M14A] (H-KRKKHRCRVYNNGAPTGMYRWC-OH; disulfide 7-22) | 16 µM | 
KRKKHRCRVYNNGMPTGMYRWS [C22S] | 250 µM | fold reduction in activity compared with bactofencin A (wild type) (S. aureus DPC5246; S. aureus DPC5246, agar well diffusion MIC): 250 fold
